{
  "source": "patent US20240366648A1",
  "about": "“NAD-AUGMENTATION THERAPY FOR PARKINSON'S DISEASE” (Vestlandets Innovasjonsselskap AS (VIS), priority 2021, published 2024)",
  "key": {"patients with PD": {"system": "patients with PD", "assay": "MDS-UPDRS / Hoehn & Yahr clinical rating, phase I trial", "assay_type": "in vivo, human", "protocol": "A single-center, double-blinded, randomized, placebo-controlled phase I trial of oral NR supplementation in newly diagnosed patients with PD was conducted. […] Due to the early onset, this patient underwent genetic investigation with whole-exome sequencing and SNP-chip based genome-wide copy number variation analysis, which excluded pathogenic mutations in PD-related genes, including PINK1 and PRKN. screening. Patient recruitment, inclusion, and follow-up was carried out by a GCP certified investigator. Sample size of 30 participants was chosen based on previously reported brain metabolic network analyses. Thirty PD patients were randomly assigned (Block size 6, allocation 1:1) to 500 mg NR, provided in the form of nicotinamide riboside chloride ([…]® from Chromadex), or placebo twice per day, 12 hours apart, using the electronic Case Report Form (Viedoc.com). The drug containers were sequentially marked by an independent third party. The […]®) and placebo were provided by ChromaDex, USA. Each NR capsule contained 250 mg of NR. Placebo capsules contained microcrystalline cellulose. The vials and capsules containing NR and placebo were identical in shape, colour, and smell. Study drug compliance was calculated from counting returned number of study capsules and self-reporting. Participants, examining physicians, medical- and research personnel were blinded for the duration of the trial. Sample size was determined by comparing previous literature with respect to the primary objective. At screening for trial entry, candidates underwent physical and neurological examination, brain MRI, and […]. Eligible patients who entered the trial were assessed at baseline (visit 1, V1) and after four weeks of exposure to either NR or placebo (visit 2, V2). At both visits, patients underwent physical and neurological examination, including assessment by the Movement Disorder Society Unified Parkinson's Disease Rating Scale section I-IV (MDS-UPDRS), and biological sampling. MR-PET was performed within one week prior to visit 1, and at visit 2. All participants remained naïve for antiparkinson drugs for the duration of the trial. All clinical assessments were performed by a blinded movement disorders expert. Each patient was examined by the same neurologist at both visits. Methodological details on each procedure are provided below. Safety was monitored through routine clinical blood tests and registration of adverse events. Adverse events (AE) were recorded and scored by the investigative physician. […] The AE relation to the study drug was scored as (1) unrelated, (2) unlikely, (3) possible, (4) probable or (5) definitely. The between visit change ([visit 2]-[visit 1]) in MDS-UPDRS (total of subsections I-III; and individual subsections I, II and III) was compared between the NR and placebo groups using independent Student's t-test. In addition, the between visit change in MDS-UPDRS (total and subsections) within the NR, MRS-responder, and placebo groups was assessed by paired Student's t-test. For the 31P-MRS analyses, the change in measured metabolites between visit 1 and visit 2 was assessed in the placebo- and NR group using paired Student's t-test. In addition, the between-visit change in NAD/ATP-α was compared between the NR and placebo group by independent Student's t-test. For PET analyses, changes in network scores with treatment were evaluated for each group separately using paired Student's t-tests or permutation tests. Relationships between network values, NAD levels and MDS-UPDRS motor ratings or between treatment-related changes in these variables were evaluated using Pearson's product-moment correlations; Spearman rank-order correlation coefficients were computed for non-normal distributions of the variables. These statistical tests were performed using SPSS (SPSS Inc., Chicago, IL); results were considered significant for p≤0.05 (two-tailed). […]"}, "total NAD in PBMCs": {"system": "total NAD in PBMCs", "assay": "NAD measurement in PBMCs, NADMed method", "assay_type": "in vivo, human", "excerpt": "In addition to these analyses, we measured NAD levels in patient PBMC using a different approach (NADMed method). […] However, the trend was clear and convincing.\nFIG. 16: NAD measurement in PBMCs from the study cohort, using the NADMed method."}, "[1]": {"system": "individuals with Parkinson's disease", "assay": "High-dose NR safety study in PD (Example 5)", "assay_type": "in vivo, human", "settings": "oral NR 3000 mg daily, 4 weeks", "protocol": "• To determine the safety of oral NR 3000 mg daily for a period of 4 weeks in individuals with Parkinson's disease (PD). Safety is defined as the absence of NR-associated moderate or severe adverse events (AE).\nThis is a single center, phase I double blinded, randomized, placebo controlled drug-safety study.\n20 patients are included in this study: 10 receiving 3000 mg oral NR and 10 receiving placebo.\nEach capsule of NR contains 250 mg of NR. Patients administer orally 6 capsules (1500 mg) two times daily (3000 mg daily total) for the duration of the study (4 weeks). Placebo capsules are administered similarly (6 capsules two times daily). The study medication is to be taken every day during the treatment period, including prior to study visits.\nAn adverse event (AE) can therefore be any unfavourable and unintended sign (including an abnormal laboratory finding), symptom, or disease temporally associated with the use of a investigational product, whether or not related to the investigational product. The term AE is used to include both serious and non-serious AEs. If an abnormal laboratory value/vital sign is associated with clinical signs and symptoms, the sign/symptom is reported as an AE and the associated laboratory result/vital sign is considered as additional information that must be collected. Only intensity 2 and 3 is registered as AE. […]"}, "yeast": {"system": "yeast", "settings": "Belenky et al. 2007; cited from earlier work"}, "mice": {"system": "mice", "settings": "Xie et al. 2019; cited from earlier work"}, "[2]": {"settings": "Visit 1 (baseline), MRS Responders N=10"}, "[3]": {"settings": "Visit 1 (baseline), NR group N=15"}, "[4]": {"settings": "Visit 2 (after four weeks), MRS Responders N=10"}, "[5]": {"settings": "Visit 2 (after four weeks), NR group N=15"}},
  "data": [
    {"compound": "NC(=O)c1ccc[n+]([C@@H]2O[C@H](CO)[C@@H](O)[C@H]2O)c1", "note": "[NR, nicotinamide riboside]", "values": [
      {"measurement": "mean decrease in MDS-UPDRS between visits", "setting": "patients with PD; MRS-responder subgroup (n=10), paired t-test p=0.071", "result": "1.9±2.78"},
      {"measurement": "clinical change as measured by the UPDRS scale", "setting": "patients with PD; NR 1000 mg daily, one month", "result": "mild clinical improvement"},
      {"measurement": "motor symptoms in PD patients who received NR", "setting": "patients with PD; NR 1000 mg daily, one month", "result": "no worsening of motor symptoms"},
      {"measurement": "Hoehn & Yahr Stage, mean", "setting": "patients with PD; [2]", "result": 1.7},
      {"measurement": "MDS-UPDRS I, mean score", "setting": "patients with PD; [2]", "result": 6.2},
      {"measurement": "MDS-UPDRS II, mean score", "setting": "patients with PD; [2]", "result": 6.4},
      {"measurement": "MDS-UPDRS III, mean score", "setting": "patients with PD; [2]", "result": 29.6},
      {"measurement": "Total score MDS-UPDRS (I-III), mean", "setting": "patients with PD; [2]", "result": 42.2},
      {"measurement": "Hoehn & Yahr Stage, mean", "setting": "patients with PD; [3]", "result": 1.8},
      {"measurement": "MDS-UPDRS I, mean score", "setting": "patients with PD; [3]", "result": 6.3},
      {"measurement": "MDS-UPDRS II, mean score", "setting": "patients with PD; [3]", "result": 7.9},
      {"measurement": "MDS-UPDRS III, mean score", "setting": "patients with PD; [3]", "result": 31.1},
      {"measurement": "Total score MDS-UPDRS (I-III), mean", "setting": "patients with PD; [3]", "result": 45.2},
      {"measurement": "Hoehn & Yahr Stage, mean", "setting": "patients with PD; [4]", "result": 1.8},
      {"measurement": "MDS-UPDRS I, mean score", "setting": "patients with PD; [4]", "result": 5.3},
      {"measurement": "MDS-UPDRS II, mean score", "setting": "patients with PD; [4]", "result": 6.4},
      {"measurement": "MDS-UPDRS III, mean score", "setting": "patients with PD; [4]", "result": 28.7},
      {"measurement": "Total score MDS-UPDRS (I-III), mean", "setting": "patients with PD; [4]", "result": 40.4},
      {"measurement": "Hoehn & Yahr Stage, mean", "setting": "patients with PD; [5]", "result": 1.9},
      {"measurement": "MDS-UPDRS I, mean score", "setting": "patients with PD; [5]", "result": 5.4},
      {"measurement": "MDS-UPDRS II, mean score", "setting": "patients with PD; [5]", "result": 8.3},
      {"measurement": "MDS-UPDRS III, mean score", "setting": "patients with PD; [5]", "result": 30.5},
      {"measurement": "Total score MDS-UPDRS (I-III), mean", "setting": "patients with PD; [5]", "result": 44.1},
      {"measurement": "mean decrease in MDS-UPDRS between visits", "setting": "patients with PD; nine individuals with >10% increase in cerebral NAD, paired t-test p=0.017", "result": "2.33±2.35"},
      {"measurement": "NAD levels in PBMC, between visits", "setting": "total NAD in PBMCs; NR group, did not reach statistical significance in paired t-test", "result": "increase"},
      {"measurement": "between visit change in PBMC NAD levels, NR vs placebo group", "setting": "total NAD in PBMCs; p=0.0256", "result": "significantly higher increase"},
      {"measurement": "adverse events reported throughout the study", "setting": "[1]", "result": "no serious adverse events or any adverse events of medical significance"},
      {"measurement": "lifespan in yeast", "setting": "yeast", "result": "extends lifespan"},
      {"measurement": "neuroprotection in mice", "setting": "mice", "result": "neuroprotective effects"}
    ]}
  ]
}
